{"source": "patent EP0285883A2", "about": "“Bactobolin as a prophylactic or therapeutic agent for autoimmune diseases, and as an immuno-suppressive agent” (ZAIDAN HOJIN BISEIBUTSU KAGAKU KENKYU KAI, priority 1987, dated 1988)", "key": {"[1]": {"test_system": "mouse", "conditions": "in mouse, intravenous; cited from earlier work"}, "[2]": {"test_system": "Passively Induced EAE", "assay": "Test 4: passively induced EAE (transfer of precultured spleen cells)", "assay_type": "in vivo, rats", "conditions": "0.5 mg/Kg, sacrificed Day 9 P.I."}, "[3]": {"test_system": "EAE", "assay": "Test 2: EAE in MBP/CFA-immunized rats, treatment during the effector phase (Day 8-14)", "assay_type": "in vivo", "conditions": "for Histologic score (±SD): treatment during the effector phase, evaluated for 15 days after the immunization", "protocol": "Bactobolin was administered intraperitoneally to the MBP/CFA-immunized animals (rats) during a period (Day 8-14), which was considered to correspond primarily to the effector phase of EAE, and during this period the effects of bactobolin was estimated."}, "[4]": {"test_system": "Acute Experimental Autoimmune Encephalomyelitis (EAE) of Rat", "assay": "Test 1: acute EAE of rat, treatment during the induction phase", "assay_type": "in vivo, rats", "conditions": "for Incidence of EAE Number of animals affected/Number of animals tested: 0.5 mg/Kg intraperitoneal daily, observed for 16 days after immunization; for Histologic score (±SD): treatment during the inductive phase, mean of six separate sections incl. spinal cord and brain, ratings zero to 4", "protocol": "To animals (rats) as sensitized with myelin basic protein/complete Freund adjuvant (hereinafter affreviated as MBP/CFA) for immunization, 0.5 mg/kg of bactobolin was administered by intraperitoneal injection daily from the next day (Day 1) of the immunization to Day 8. This administration period corresponds approximately to the induction phase of EAE."}, "[5]": {"test_system": "lymph node cells", "assay": "Test 5: lymphocyte proliferative responses of lymph node cells from treated rats (tritiated thymidine uptake)", "assay_type": "in vivo", "protocol": "Using lymph node cells which were separately collected separately from control rats and from the bactobolin-intraperitoneally administered rats on Day 11 (the 11th day after the sensitization), the lymphocyte proliferative responses to specific antigen, as well as the response to Con A were assessed.\nNote 1:- Animals belonging to Bactobolin-administered group were daily intraperitoneally with 0.5mg/kg of bactobolin from Day 1 P.I. to Day 8 P.I., and the control animals were treated with PBS. Note 2:-Lymph node cells were obtained from control and bactobolin-treated rats 11 days after the sensitization. These lymphoid cells were cultured with GPBP (10 µg/mℓ), PPD (10 µg/mℓ) or Con A (2 µg/mℓ) for 3 days. The proliferative responses were assessed by measuring the uptake of tritiated thymidine.\nIn the above, CPM means the measured number of count per minute; MBP means myelin basic protein; PPD means a purified protein derivative; and Con A means concanavalin A."}, "[6]": {"test_system": "EAE", "assay": "Test 3: EAE, treatment started after onset of clinical signs", "assay_type": "in vivo", "conditions": "0.5 mg/Kg i.p., started on the day of the first clinical sign", "protocol": "A study was conducted to determine whether the intraperitoneal administration of bactobolin made after the incidence of EAE was therapeutically effective, or not."}}, "note": "Values joined by “and” are separate entries in the source; they are usually repeats but may differ in a detail not shown here. Identical values can stand only once."}
{"compound": "C[C@H](N)C(=O)N[C@@H]1[C@H]2C(=C(O)C[C@@H](O)[C@@H]2O)C(=O)O[C@]1(C)C(Cl)Cl", "note": "[Bactobolin, bactobolin]", "values": [{"measurement": "acute LD50 toxicity", "setting": "[1]", "result": "6.25 to 12.5", "unit": "mg/kg"}, {"measurement": "Paralysis score (±SD)", "setting": "[2]; recipients administered Day 1 to Day 8 P.I.", "result": "0 ± 0"}, {"measurement": "Incidence of EAE (days ± SD)", "setting": "[2]; recipients of 2x10^7 precultured spleen cells, administered Day 1 to Day 8 P.I.", "result": "suppressed the incidence of passively induced EAE markedly and 0/2"}, {"measurement": "Paralysis score (±SD)", "setting": "[3]; 0.5 mg/Kg i.p., effector phase, Day 8-14, sacrificed on Day 15 P.I.", "result": "0 ± 0"}, {"measurement": "Incidence of EAE (number of animals affected number of animals tested)", "setting": "[3]; 0.5 mg/Kg i.p., effector phase, Day 8-14 after the immunization", "result": "suppressed the incidence of EAE markedly and 0/5"}, {"measurement": "Histologic score (±SD)", "setting": "[3]", "result": "0.1 ± 0.1"}, {"measurement": "Histologic score (±SD)", "setting": "[3]; listed as bactobolin", "result": "suppressed histologic lesion markedly"}, {"measurement": "Paralysis score (±SD)", "setting": "[4]; 0.5 mg/Kg i.p. daily, Day 1-8 (induction phase), sum of the scores daily estimated during the disease", "result": "0 ± 0"}, {"measurement": "Incidence of EAE Number of animals affected/Number of animals tested", "setting": "[4]; Day 1-8 (induction phase)", "result": "0/5"}, {"measurement": "Incidence of EAE Number of animals affected/Number of animals tested", "setting": "[4]; Day 1-8 (induction phase), listed as bactobolin", "result": "none of the rats developed EAE"}, {"measurement": "Histologic score (±SD)", "setting": "[4]", "result": "0.5 ± 0.6"}, {"measurement": "Histologic score (±SD)", "setting": "[4]; listed as bactobolin", "result": "suppresses histologic EAE markedly"}, {"measurement": "CPM ± SD (uptake of tritiated thymidine)", "setting": "[5]; Con A (2 µg/mℓ), 0.5mg/kg i.p. daily Day 1-8 P.I., cells taken 11 days after sensitization, cultured 3 days", "result": "suppressed"}, {"measurement": "lymphocyte proliferative responses to specific antigen", "setting": "[5]; lymph node cells of the bactobolin-administered group, Day 11, result in words", "result": "No lymphocyte proliferative responses to specific antigen were observed"}, {"measurement": "Paralysis score (±SD)", "setting": "[6]", "result": "4.6 ± 1.2"}, {"measurement": "Whole duration of illness (days ± SD)", "setting": "[6]", "result": "4.4 ± 1.0", "unit": "days"}, {"measurement": "Paralysis score (±SD)", "setting": "[6]; listed as bactobolin", "result": "suppressed significantly"}, {"measurement": "Whole duration of illness (days ± SD)", "setting": "[6]; listed as bactobolin", "result": "no substantial influences were observed"}]}
